Experimental data from ChEMBL document CHEMBL3879915, “Methods of inhibiting PRMT5” (2014).

Columns and labels:
[1] = target: PRMT5/MEP50 complex (Homo sapiens, UniProt O14744); assay: Inhibition of recombinant human fetal brain FLAG-tagged PRMT5/full length human testis 6His-tagged MEP50 expressed in baculovirus infected insect Sf9 cells using human histone H4 (1 to 15 residues) as substrate preincubated for 30 mins followed by [3H]-SAM addition
[2] = target: Protein arginine N-methyltransferase 5 (Homo sapiens, UniProt O14744); assay: Inhibition of PRMT5 in human Z138 cells assessed as decrease in di-methyl arginine levels after 96 hrs by Western blot method; format: cell-based
[3] = Antiproliferative activity against human Z138 cells assessed as inhibition of cell viability after 5 days by Cell-Titer Glo assay; format: functional, cell-based; details: Z-138, 120 h

PRMT5/MEP50 complex, sequence (O14744 whole entry, the tested form may be a part): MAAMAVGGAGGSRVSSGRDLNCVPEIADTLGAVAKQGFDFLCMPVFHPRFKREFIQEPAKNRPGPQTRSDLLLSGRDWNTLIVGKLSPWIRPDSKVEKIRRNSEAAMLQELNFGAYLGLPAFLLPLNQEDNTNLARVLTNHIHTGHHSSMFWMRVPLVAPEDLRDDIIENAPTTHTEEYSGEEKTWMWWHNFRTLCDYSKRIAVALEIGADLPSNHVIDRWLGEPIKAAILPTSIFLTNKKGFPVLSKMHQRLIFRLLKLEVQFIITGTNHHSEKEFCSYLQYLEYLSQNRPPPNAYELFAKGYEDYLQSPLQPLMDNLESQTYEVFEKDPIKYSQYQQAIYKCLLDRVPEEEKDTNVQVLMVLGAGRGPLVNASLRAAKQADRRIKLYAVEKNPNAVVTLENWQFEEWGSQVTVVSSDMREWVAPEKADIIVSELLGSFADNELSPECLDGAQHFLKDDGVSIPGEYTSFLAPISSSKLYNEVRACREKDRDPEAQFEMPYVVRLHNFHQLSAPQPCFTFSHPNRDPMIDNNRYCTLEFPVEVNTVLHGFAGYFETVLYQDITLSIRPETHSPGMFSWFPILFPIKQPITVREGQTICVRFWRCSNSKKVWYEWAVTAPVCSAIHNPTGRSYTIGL
PRMT5/MEP50 complex, sequence (Q9BQA1 whole entry, further chain, the tested form may be a part): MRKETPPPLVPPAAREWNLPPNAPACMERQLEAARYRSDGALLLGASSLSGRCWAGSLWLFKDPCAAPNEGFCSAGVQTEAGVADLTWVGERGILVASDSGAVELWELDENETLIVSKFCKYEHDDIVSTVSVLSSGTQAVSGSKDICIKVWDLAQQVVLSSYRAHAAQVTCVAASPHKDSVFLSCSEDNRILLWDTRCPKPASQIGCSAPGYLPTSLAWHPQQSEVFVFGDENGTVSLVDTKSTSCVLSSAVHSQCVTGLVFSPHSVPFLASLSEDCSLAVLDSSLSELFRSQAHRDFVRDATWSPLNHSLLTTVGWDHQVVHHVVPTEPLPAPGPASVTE
Protein arginine N-methyltransferase 5, sequence (O14744 whole entry): as the sequence (O14744 whole entry, the tested form may be a part) above

Cn1cnc2cc(OCC(=O)NCC(O)CN3CCc4ccccc4C3)ccc21 (centres undefined)
IC50 [1]: 101 to 1000 nM
EC50 [2]: 101 to 1000 nM
EC50 [3]: 10000 to 50000 nM

Cn1ncc2c(OCC(=O)NCC(O)CN3CCc4ccccc4C3)cccc21 (centres undefined)
IC50 [1]: < 100 nM
EC50 [2]: < 100 nM
EC50 [3]: 1000 to 10000 nM

CN1CCC(n2ncc3ccc(OCC(=O)NCC(O)CN4CCc5ccccc5C4)cc32)CC1 (centres undefined)
IC50 [1]: < 100 nM
EC50 [2]: 101 to 1000 nM
EC50 [3]: > 20000 nM

CS(=O)(=O)c1cccc(OCC(=O)NCC(O)CN2CCc3ccccc3C2)c1 (centres undefined)
IC50 [1]: < 100 nM
EC50 [2]: 101 to 1000 nM
EC50 [3]: 1000 to 10000 nM

O=C(COc1cccc(C(=O)N2CCOCC2)c1)NCC(O)CN1CCc2ccccc2C1 (centres undefined)
IC50 [1]: 101 to 1000 nM
EC50 [2]: 101 to 1000 nM
EC50 [3]: 10000 to 50000 nM

CC(=O)N1CCc2c(cccc2OCC(=O)NCC(O)CN2CCc3ccccc3C2)C1 (centres undefined)
IC50 [1]: < 100 nM
EC50 [2]: < 100 nM
EC50 [3]: 1000 to 10000 nM

O=C(COc1cccc2ccccc12)NCC(O)CN1CCc2ccccc2C1 (centres undefined)
IC50 [1]: < 100 nM
EC50 [2]: 101 to 1000 nM
EC50 [3]: 1000 to 10000 nM

O=C(COc1cccc2c1OCCO2)NCC(O)CN1CCc2ccccc2C1 (centres undefined)
IC50 [1]: < 100 nM
EC50 [2]: < 100 nM
EC50 [3]: 1000 to 10000 nM

O=C(COc1ccccc1OCCN1CCOCC1)NC[C@H](O)CN1CCc2ccccc2C1
IC50 [1]: < 100 nM
EC50 [2]: 101 to 1000 nM
EC50 [3]: 10000 to 50000 nM

CN(C)S(=O)(=O)c1ccccc1OCC(=O)NCC(O)CN1CCc2ccccc2C1 (centres undefined)
IC50 [1]: < 100 nM
EC50 [2]: < 100 nM
EC50 [3]: 101 to 1000 nM

O=C(COc1ccccc1-c1cc[nH]n1)NC[C@@H](O)CN1CCc2ccccc2C1
IC50 [1]: < 100 nM
EC50 [2]: < 100 nM
EC50 [3]: 1000 to 10000 nM

CS(=O)(=O)N1CCc2c(cccc2OCC(=O)NCC(O)CN2CCc3ccccc3C2)C1 (centres undefined)
IC50 [1]: < 100 nM
EC50 [2]: < 100 nM
EC50 [3]: 1000 to 10000 nM

CC(C)(Oc1cccc2cccnc12)C(=O)NCC(O)CN1CCc2ccccc2C1 (centres undefined)
IC50 [1]: < 100 nM
EC50 [2]: 101 to 1000 nM
EC50 [3]: 1000 to 10000 nM

CN1CCOc2cccc(OCC(=O)NCC(O)CN3CCc4ccccc4C3)c21 (centres undefined)
IC50 [1]: < 100 nM
EC50 [2]: < 100 nM
EC50 [3]: 101 to 1000 nM

O=C(COc1cccc2ccc(N3CCOCC3)nc12)NCC(O)CN1CCc2ccccc2C1 (centres undefined)
IC50 [1]: < 100 nM
EC50 [2]: 101 to 1000 nM
EC50 [3]: 10000 to 50000 nM

O=C(COc1ccc2c(cnn2C2CCNC2)c1)NCC(O)CN1CCc2ccccc2C1 (centres undefined)
IC50 [1]: < 100 nM
EC50 [2]: 101 to 1000 nM
EC50 [3]: 10000 to 50000 nM

O=C(COc1c(CN2CCOCC2)ccc2cccnc12)NC[C@H](O)CN1CCc2ccccc2C1
IC50 [1]: < 100 nM
EC50 [2]: 101 to 1000 nM
EC50 [3]: 10000 to 50000 nM

C[C@H](Oc1cccc2cccnc12)C(=O)NC[C@H](O)CN1CCc2ccccc2C1
IC50 [1]: < 100 nM
EC50 [2]: 101 to 1000 nM
EC50 [3]: 1000 to 10000 nM

CN1C(=O)COc2cccc(OCC(=O)NCC(O)CN3CCc4ccccc4C3)c21 (centres undefined)
IC50 [1]: < 100 nM
EC50 [2]: 101 to 1000 nM
EC50 [3]: 10000 to 50000 nM

CN1CCc2c(cccc2OCC(=O)NCC(O)CN2CCc3ccccc3C2)C1 (centres undefined)
IC50 [1]: < 100 nM
EC50 [2]: 101 to 1000 nM
EC50 [3]: 1000 to 10000 nM

CS(=O)(=O)N1CCN(c2ccccc2OCC(=O)NCC(O)CN2CCc3ccccc3C2)CC1 (centres undefined)
IC50 [1]: 101 to 1000 nM
EC50 [2]: 101 to 1000 nM
EC50 [3]: > 20000 nM

CC(=O)N1CCN(c2ccccc2OCC(=O)NCC(O)CN2CCc3ccccc3C2)CC1 (centres undefined)
IC50 [1]: < 100 nM
EC50 [2]: 101 to 1000 nM
EC50 [3]: 10000 to 50000 nM

O=C(COc1ccccc1-c1cc[nH]n1)NC[C@H](O)CN1CCc2ccccc2C1
IC50 [1]: < 100 nM
EC50 [2]: 101 to 1000 nM
EC50 [3]: > 20000 nM

O=C(COc1ccccc1S(=O)(=O)N1CCNCC1)NCC(O)CN1CCc2ccccc2C1 (centres undefined)
IC50 [1]: < 100 nM
EC50 [2]: < 100 nM
EC50 [3]: 1000 to 10000 nM

O=C(COc1cccc2c1CCNC2)NCC(O)CN1CCc2ccccc2C1 (centres undefined)
IC50 [1]: < 100 nM
EC50 [2]: 101 to 1000 nM
EC50 [3]: 1000 to 10000 nM

CN(C)CCOc1ccccc1OCC(=O)NC[C@H](O)CN1CCc2ccccc2C1
IC50 [1]: < 100 nM
EC50 [2]: 101 to 1000 nM
EC50 [3]: 10000 to 50000 nM

C[C@@H](Oc1cccc2cccnc12)C(=O)NC[C@H](O)CN1CCc2ccccc2C1
IC50 [1]: < 100 nM
EC50 [2]: < 100 nM
EC50 [3]: 101 to 1000 nM

O=C(COc1cccc2c1CCCC2)NCC(O)CN1CCc2ccccc2C1 (centres undefined)
IC50 [1]: < 100 nM
EC50 [2]: 101 to 1000 nM
EC50 [3]: 1000 to 10000 nM

COc1ccc2cccc(OCC(=O)NC[C@@H](O)CN3CCc4ccccc4C3)c2n1
IC50 [1]: < 100 nM
EC50 [2]: < 100 nM
EC50 [3]: 1000 to 10000 nM

O=C(COc1ccccc1S(=O)(=O)N1CCC(O)C1)NCC(O)CN1CCc2ccccc2C1 (centres undefined)
IC50 [1]: < 100 nM
EC50 [2]: < 100 nM
EC50 [3]: 101 to 1000 nM

O=C(COc1ccccc1N1CCOCC1)NC[C@H](O)CN1CCc2ccccc2C1
IC50 [1]: < 100 nM
EC50 [2]: < 100 nM
EC50 [3]: 1000 to 10000 nM

O=C(COc1ccccc1C1CCNCC1)NCC(O)CN1CCc2ccccc2C1 (centres undefined)
IC50 [1]: < 100 nM
EC50 [2]: 101 to 1000 nM
EC50 [3]: > 20000 nM

NS(=O)(=O)c1ccccc1OCC(=O)NCC(O)CN1CCc2ccccc2C1 (centres undefined)
IC50 [1]: < 100 nM
EC50 [2]: 101 to 1000 nM
EC50 [3]: 1000 to 10000 nM

O=C(COc1ccccc1S(=O)(=O)N1CCCC1)NCC(O)CN1CCc2ccccc2C1 (centres undefined)
IC50 [1]: < 100 nM
EC50 [2]: < 100 nM
EC50 [3]: 101 to 1000 nM

O=C(COc1ccccc1N1CCOCC1)NCC(O)CN1CCc2ccccc2C1 (centres undefined)
IC50 [1]: < 100 nM
EC50 [2]: 101 to 1000 nM
EC50 [3]: 1000 to 10000 nM

CN1CCN(c2ccccc2OCC(=O)NC[C@H](O)CN2CCc3ccccc3C2)CC1
IC50 [1]: < 100 nM
EC50 [2]: 101 to 1000 nM
EC50 [3]: 1000 to 10000 nM

O=C(COc1cccc2cccnc12)NC[C@@H](O)CN1CCc2ccccc2C1
IC50 [1]: < 100 nM
EC50 [2]: < 100 nM
EC50 [3]: 101 to 1000 nM

O=C(COc1cccc2cccnc12)NC[C@H](O)CN1CCc2ccccc2C1
IC50 [1]: 101 to 1000 nM
EC50 [2]: 101 to 1000 nM
EC50 [3]: 10000 to 50000 nM

O=C(COc1cccc(CN2CCOCC2)c1)NCC(O)CN1CCc2ccccc2C1 (centres undefined)
IC50 [1]: < 100 nM
EC50 [2]: < 100 nM
EC50 [3]: 1000 to 10000 nM

CN(C)c1ccc2cccc(OCC(=O)NC[C@H](O)CN3CCc4ccccc4C3)c2n1
IC50 [1]: 101 to 1000 nM
EC50 [2]: 1000 to 10000 nM
EC50 [3]: > 20000 nM

CS(=O)(=O)Nc1ccc(OCC(=O)NCC(O)CN2CCc3ccccc3C2)cc1 (centres undefined)
IC50 [1]: 101 to 1000 nM
EC50 [2]: 101 to 1000 nM
EC50 [3]: > 20000 nM

CS(=O)(=O)Nc1ccccc1OCC(=O)NCC(O)CN1CCc2ccccc2C1 (centres undefined)
IC50 [1]: < 100 nM
EC50 [2]: 101 to 1000 nM
EC50 [3]: 1000 to 10000 nM

O=C(COc1cccc(NC2CCOCC2)c1)NCC(O)CN1CCc2ccccc2C1 (centres undefined)
IC50 [1]: < 100 nM
EC50 [2]: < 100 nM
EC50 [3]: 1000 to 10000 nM

O=C(COc1ccccc1-c1cc[nH]n1)NCC(O)CN1CCc2ccccc2C1 (centres undefined)
IC50 [1]: < 100 nM
EC50 [2]: < 100 nM
EC50 [3]: 1000 to 10000 nM

COc1ccc2cccc(OCC(=O)NC[C@H](O)CN3CCc4ccccc4C3)c2n1
IC50 [1]: 101 to 1000 nM
EC50 [2]: 101 to 1000 nM
EC50 [3]: 1000 to 10000 nM

CN1CCC(n2ncc3cc(OCC(=O)NCC(O)CN4CCc5ccccc5C4)ccc32)C1 (centres undefined)
IC50 [1]: < 100 nM
EC50 [2]: 101 to 1000 nM
EC50 [3]: 10000 to 50000 nM

CNC(=O)c1ccccc1OCC(=O)NCC(O)CN1CCc2ccccc2C1 (centres undefined)
IC50 [1]: 101 to 1000 nM
EC50 [2]: 101 to 1000 nM
EC50 [3]: > 20000 nM

C[C@@H](Oc1cccc2cccnc12)C(=O)NC[C@@H](O)CN1CCc2ccccc2C1
IC50 [1]: < 100 nM
EC50 [2]: 101 to 1000 nM
EC50 [3]: 1000 to 10000 nM

CN1CCN(S(=O)(=O)c2ccccc2OCC(=O)NCC(O)CN2CCc3ccccc3C2)CC1 (centres undefined)
IC50 [1]: < 100 nM
EC50 [2]: 101 to 1000 nM
EC50 [3]: 10000 to 50000 nM

O=C(COc1ccc2cnn(C3CCNCC3)c2c1)NCC(O)CN1CCc2ccccc2C1 (centres undefined)
IC50 [1]: < 100 nM
EC50 [2]: 101 to 1000 nM
EC50 [3]: > 20000 nM

CN(C)c1ccc2cccc(OCC(=O)NC[C@@H](O)CN3CCc4ccccc4C3)c2n1
IC50 [1]: < 100 nM
EC50 [2]: 101 to 1000 nM
EC50 [3]: 1000 to 10000 nM

O=C(COc1ccccc1N1CCNCC1)NCC(O)CN1CCc2ccccc2C1 (centres undefined)
IC50 [1]: < 100 nM
EC50 [2]: 101 to 1000 nM
EC50 [3]: 1000 to 10000 nM

O=C(COc1cccc2nccnc12)NCC(O)CN1CCc2ccccc2C1 (centres undefined)
IC50 [1]: < 100 nM
EC50 [2]: < 100 nM
EC50 [3]: 1000 to 10000 nM
